Measured values: patent publication US9138466B2, “Factor H for transplantation” (Baxter International Inc., priority 2013, dated 2015)
Where “and” joins values, the source holds several entries; their conditions need not be identical. Identical values can stand only once. Marks after values point to notes of the source that are not given here.

Columns and labels:
Type in all cases: in vivo
[1] = system: collagen antibody-induced arthritis in Balb C mice; experiment: Mouse CAIA, clinical score (Example 4); design: key to Mean Maximum Clinical Score: scored 0 to 60, sum of 4 limbs
[2] = system: collagen antibody-induced arthritis in Balb C mice; experiment: Mouse CAIA, histopathology of hind limbs (ankle, H & E) (Example 4); settings: for Composite Histopathaligy Score / Score From H & E, Bone Resorption / Score From H & E, Cartilage Damage / Score From H & E, Inflammation / Score From H & E, Pannus / Score From H & E, Periosteal Exostotic Changes: ankle; for Score From H & E, Bone Resorption / Score From H & E, Cartilage Damage / Score From H & E, Inflammation / Score From H & E, Pannus / Score From H & E, Periosteal Exostotic Changes: score 0 = normal to 5 = severe
[3] = Mouse CAIA, body weight and tolerability (Example 4)
Protocol: Balb C mice (n=10 per cohort) were used to determine the efficacy of Factor H (FH) during transplant rejection. The mice were treated with ArthritoMAb (anti-collagen) antibody cocktail (2 mg, i.v.) on day 1, followed 7 days later with an injection of LPS (50 μg, i.p.). On day 8, hind paw volumes were measured for each animal and distributed to various treatment groups.
Hind paw volumes were measured on day 8, 11, 12, 13, 15, 19 and 22 (endpoint). The age at start date was 7 to 9 weeks. Body weights were measured bi-weekly to the endpoint (Table 4). At the endpoint, tissue samples were processed for histology and submitted to a pathologist for independent analysis. Sampling 1 was performed at the endpoint. The hind limbs were preserved in 10% formalin. Sampling 2 was performed at the endpoint for group 4 animals. Blood was collected by terminal cardiac puncture. The blood was processed for anti-coagulant. The kidneys were additionally preserved in formalin and followed with 70% EtOH. Samples were scored for inflammation, pannus (granulation tissue), cartilage damage, bone resorption and exostosis (Table 5).

[4] = system: collagen antibody-induced arthritis in Balb C mice; experiment: Mouse CAIA, hind paw volume / footpad swelling (Example 4); design: Mean Disease Burden / Hind Limb Volume, Mean Diff. / Total Disease, Mean Diff.: unit not given here; settings: for Total Footpad Thickness, Day of Study 8: day 8; for Total Footpad Thickness, Day of Study 11: day 11; for Total Footpad Thickness, Day of Study 12: day 12; for Total Footpad Thickness, Day of Study 13: day 13; for Total Footpad Thickness, Day of Study 15: day 15; for Total Footpad Thickness, Day of Study 19: day 19; for Total Footpad Thickness, Day of Study 22: day 22; for % Disease Suppression: footpad thickness AUC vs vehicle; for Total Disease Burden (AUC): footpad thickness days 8-22, in mL·day
[5] = Dunn's Multiple Comparison Test, G1 vehicle vs treatment
[6] = individual animal, listed as Group 3
[7] = Dunnett's Multiple Comparison Test, G1 vehicle vs treatment
[8] = Dunnett's Multiple Comparison Test, vehicle vs treatment

Which results are given for Etanercept?
Clinical Score, Difference in rank sum [1, 5]: 3.55; Clinical Score, Significant? P < 0.05? [1, 5]: No; Clinical score, Mean ([1]; day 8, group mean n=10): 5.50; Clinical score ([1]; day 8, individual animal): 0 (5×) and 15 and 10 (4×); Clinical score, Mean ([1]; day 11, group mean n=10): 19.60; Clinical score ([1]; day 11, individual animal): 12 (2×) and 34 and 28 and 4 and 15 and 43 and 11 and 10 and 27; Clinical score, Mean ([1]; day 12, group mean n=10): 37.10; Clinical score ([1]; day 12, individual animal): 32 and 50 (2×) and 45 and 27 and 35 and 26 and 20 and 34 and 52; Clinical score, Mean ([1]; day 13, group mean n=10): 35.50; Clinical score ([1]; day 13, individual animal): 32 and 50 and 45 (2×) and 21 and 35 and 30 and 15 and 34 and 48; Clinical score, Mean ([1]; day 15, group mean n=10): 31.50; Clinical score ([1]; day 15, individual animal): 32 and 49 and 21 and 48 and 25 and 45 and 15 and 10 and 24 and 46; Clinical score, Mean ([1]; day 19, group mean n=10): 28.40; Clinical score ([1]; day 19, individual animal): 32 and 48 and 34 and 25 and 5 and 45 and 20 and 10 and 26 and 37; Clinical score, Mean ([1]; day 22, group mean n=10): 25.70; Clinical score ([1]; day 22, individual animal): 32 and 41 and 34 and 18 (3×) and 40 and 10 and 23 and 26; Day (of Max Clin Score), Mean ([1]; group line 'Mean', day of study): 12.00; Max Clin Score, Mean ([1]; group mean n=10): 38.60; Max Clin Score ([1]; individual animal): 32 and 50 (2×) and 45 and 48 and 35 and 30 and 20 and 34 and 52; Day (of Max Clin Score) ([1]; individual animal, day of study): 12 (8×) and 22 and 16; Mean Maximum Clinical Score ([1]; scored from 0 to 60, sum of 4 limbs, vehicle 45.4): 39.6^ns; Cartilage, Difference in rank sum [2, 5]: −1.5; Cartilage, Significant? P < 0.05? [2, 5]: No; Composite, Difference in rank sum [2, 5]: 2.1; Composite, Significant? P < 0.05? [2, 5]: No; Exostosis, Difference in rank sum [2, 5]: 5.8; Exostosis, Significant? P < 0.05? [2, 5]: No; Inflammation, Difference in rank sum [2, 5]: 3.6; Inflammation, Significant? P < 0.05? [2, 5]: No; Pannus, Difference in rank sum [2, 5]: 0.3; Pannus, Significant? P < 0.05? [2, 5]: No; Composite Histopathaligy Score ([2]; group mean): 6.0 ± 2.1; Score From H & E, Bone Resorption ([2]; group mean): 1.0 ± 0.4; Score From H & E, Cartilage Damage ([2]; group mean): 0.7 ± 0.3; Score From H & E, Inflammation ([2]; group mean): 1.5 ± 0.5; Score From H & E, Pannus ([2]; group mean): 1.4 ± 0.5; Score From H & E, Periosteal Exostotic Changes ([2]; group mean): 1.4 ± 0.8; Score From H & E, Bone Resorption [2, 6]: 1 and 0 (6×) and 3 (3×); Score From H & E, Cartilage Damage [2, 6]: 1 (3×) and 0 (5×) and 2 (2×); Score From H & E, Inflammation [2, 6]: 1 (4×) and 3 (3×) and 0 (2×) and 2; Score From H & E, Pannus [2, 6]: 1 and 0 (5×) and 4 (2×) and 2 (2×); Score From H & E, Periosteal Exostotic Changes [2, 6]: 4 and 0 (6×) and 1 and 3 (2×); Composite Histopathaligy Score [2, 6]: 11 (2×) and 0 (5×) and 16 and 15 and 1; Bone Resorption ([2]; histopathology summary, graded 1-5, vehicle 0.6 ± 0.3): 1.0 ± 0.4^ns; Pannus ([2]; histopathology summary, graded 1-5, vehicle 1.0 ± 0.3): 1.4 ± 0.5^ns; Inflammation ([2]; histopathology summary, graded 1-5, vehicle 2.0 ± 0.5): 1.5 ± 0.5^ns; Exostosis ([2]; histopathology summary, graded 1 to 5, vehicle 2.6 ± 0.5): 1.4 ± 0.6^ns; Cartilage Damage ([2]; histopathology summary, vehicle 0.5 ± 0.2): 0.7 ± 0.3^ns; Composite Score ([2]; histopathology summary, vehicle 6.7 ± 1.7): 6.0 ± 2.1^ns; Body Weight, Wt (g), Mean ([3]; day 1, group mean n=10, before dosing start (day 8)): 17.3 g; Body Weight, Wt ([3]; day 1, individual animal, before dosing start (day 8)): 16.7 g and 17.3 g and 16.5 g (2×) and 18 g (2×) and 17.7 g and 17.5 g and 16.8 g and 17.6 g; Body Weight, Wt (g), Mean ([3]; day 5, group mean n=10, before dosing start (day 8)): 17.7 g; Body Weight, Wt ([3]; day 5, individual animal, before dosing start (day 8)): 18.5 g (2×) and 17.4 g (2×) and 18.2 g and 16.6 g and 17.3 g and 17 g and 18.1 g and 18.3 g; Body Weight, Wt (g), Mean ([3]; day 8, group mean n=10): 16.3 g; Body Weight, Wt ([3]; day 8, individual animal): 16.5 g and 16.4 g (2×) and 16.1 g (2×) and 15.7 g (2×) and 16.2 g and 16.6 g and 17.1 g; Body Weight, Wt (g), Mean ([3]; day 12, group mean n=10): 17 g; Body Weight, Wt ([3]; day 12, individual animal): 16.6 g and 16.7 g (2×) and 17.8 g (2×) and 17.9 g and 15.5 g and 17.1 g and 17.7 g; Body Weight, Wt (g), Mean ([3]; day 15, group mean n=10): 17.4 g; Body Weight, Wt ([3]; day 15, individual animal): 17.1 g and 17.8 g and 17 g and 17.7 g and 16.6 g and 18 g (2×) and 17.9 g and 16.2 g and 17.6 g; Body Weight, Wt (g), Mean ([3]; day 19, group mean n=10): 17.9 g; Body Weight, Wt ([3]; day 19, individual animal): 18.3 g (2×) and 17.7 g and 18.4 g and 14.6 g and 18.8 g and 18.6 g (2×) and 16.5 g and 19.1 g; Body Weight, Wt (g), Mean ([3]; day 22, group mean n=10): 18.1 g; Body Weight, Wt ([3]; day 22, individual animal): 18.8 g and 18.3 g and 17.8 g and 18.7 g and 15.8 g and 18 g and 18.2 g and 17.3 g and 18.6 g and 19.6 g; Mean Body Weigh at Nadir ([3]; lowest group mean body weight as % change from day 1, vehicle −8.0%): −5.7%; Mean Disease Burden ([4]; AUC of combined footpad volume over baseline, days 8 to 22, group mean, vehicle 1.93): 0.74**; Total Disease, 95% CI of diff [4, 7]: 0.441 to 1.94; Total Disease, Mean Diff. [4, 7]: 1.19; Total Disease, Significant? P < 0.05? [4, 7]: Yes; Total Disease, Summary [4, 7]: ** (**= P < 0.01); Total Disease, q [4, 7]: 3.9; Hind Limb Volume, 95% CI of diff [4, 8]: 0.02587 to 0.1370; Hind Limb Volume, Mean Diff. [4, 8]: 0.08143; Hind Limb Volume, Significant? P < 0.05? [4, 8]: Yes; Hind Limb Volume, Summary [4, 8]: ** (**= P < 0.01); Hind Limb Volume, q [4, 8]: 3.674; Total Footpad Thickness, Day of Study 8 ([4]; group mean, n 10): 0.35 mL; Total Footpad Thickness, Day of Study 8 ([4]; individual animals (A# 1-10)): 0.41 mL and 0.4 mL and 0.38 mL and 0.37 mL and 0.35 mL and 0.34 mL and 0.32 mL and 0.31 mL and 0.3 mL (2×); Total Footpad Thickness, Day of Study 11 ([4]; group mean, n 10): 0.44 mL; Total Footpad Thickness, Day of Study 11 ([4]; individual animals (A# 1-10)): 0.49 mL and 0.44 mL (2×) and 0.37 mL and 0.38 mL and 0.39 mL and 0.4 mL (2×) and 0.45 mL and 0.41 mL; Total Footpad Thickness, Day of Study 12 ([4]; group mean, n 10): 0.44 mL; Total Footpad Thickness, Day of Study 12 ([4]; individual animals (A# 1-10)): 0.58 mL and 0.44 mL and 0.35 mL and 0.42 mL and 0.48 mL and 0.49 mL and 0.45 mL and 0.39 mL (2×) and 0.4 mL; Total Footpad Thickness, Day of Study 13 ([4]; group mean, n 10): 0.42 mL; Total Footpad Thickness, Day of Study 13 ([4]; individual animals (A# 1-10)): 0.58 mL and 0.41 mL (2×) and 0.36 mL and 0.33 mL and 0.49 mL and 0.39 mL and 0.35 mL and 0.43 mL and 0.4 mL; Total Footpad Thickness, Day of Study 15 ([4]; group mean, n 10): 0.38 mL; Total Footpad Thickness, Day of Study 15 ([4]; individual animals (A# 1-10)): 0.45 mL and 0.48 mL and 0.34 mL and 0.37 mL and 0.43 mL and 0.41 mL and 0.33 mL (2×) and 0.32 mL and 0.3 mL; Total Footpad Thickness, Day of Study 19 ([4]; group mean, n 10): 0.42 mL; Total Footpad Thickness, Day of Study 19 ([4]; individual animals (A# 1-10)): 0.61 mL and 0.43 mL and 0.4 mL and 0.47 mL (2×) and 0.32 mL and 0.42 mL and 0.35 mL and 0.33 mL and 0.38 mL; Total Footpad Thickness, Day of Study 22 ([4]; group mean, n 10): 0.38 mL; Total Footpad Thickness, Day of Study 22 ([4]; individual animals (A# 1-10)): 0.55 mL and 0.41 mL (2×) and 0.34 mL (2×) and 0.39 mL and 0.36 mL (3×) and 0.32 mL; % Disease Suppression ([4]; group mean, n 10): 61.66%; % Disease Suppression ([4]; individual animals (A# 1-10)): 16.3% and 74.3% and 109.8% and 83.9% and 52.3% and 49.7% and 69.4% and 70.2% and 29.0% and 63.7%; Total Disease Burden (AUC) ([4]; group mean, n 10): 0.74; Total Disease Burden (AUC) ([4]; individual animals (A# 1-10)): 1.62 and 0.56 and −0.19 and 0.35 and 0.92 and 0.97 and 0.59 and 0.58 and 1.37 and 0.70; Maximum Δ Mean Volume ([4]; mean combined foot pad volume, day 8 vs median day of maximal swelling, vehicle 0.21): 0.13** ml; % Disease Suppression (vs Vehicle) ([4]; percent decrease in total disease burden relative to vehicle): 61.7%
